Assays:
Type in all cases: in vivo
[1] = tested on: Soybean seeds of the variety Merlin; experiment: Soybean seed treatment: plant height, fresh and dry weight of stem and roots after 19 days (Example A); details: for dry weight roots, % of untreated control / dry weight stem, % of untreated control / fresh weight roots, % of untreated control / fresh weight stem, % of untreated control: untreated control given as 100
Description: Soybean seeds of the variety Merlin were treated with 1.2, 0.6 and 0.3 g of compound (A) per 100 kg seeds. Compound (A) was provided as an aqueous solution with a concentration of 1000 ppm compound (A). The treated seeds were seeded into soil/quartz in five replicates at the same day. Germination was observed four days later. Plant height, fresh and dry weight of stem and roots were determined after 19 days.

[2] = tested on: Soybean seeds of the variety Merlin; experiment: Soybean seed treatment: root volume after 19 days (Example B); details: untreated control 0.82
Description: Soybean seeds of the variety Merlin were treated with 1.2, 0.6 and 0.3 g of compound (A) per 100 kg seeds. Compound (A) was provided as an aqueous solution with a concentration of 1000 ppm compound (A). The treated seeds were seeded into soil/quartz in five replicates at the same day. Germination was observed four days later. Root volume was determined after 19 days.

[3] = tested on: Soybean seeds of the variety Merlin; experiment: Soybean seed treatment: comparative photographs of seedlings after 19 days (Example C)
Description: FIGS. 1A-1H. Soybean seeds of the variety Merlin were untreated FIG. 1A (top view) and FIG. 1B (side view), or treated 1.2 g/100 kg/seeds of Compound (A) in FIG. 1C (top view) and FIG. 1D (side view); or treated with 0.6 g/100 kg seeds of Compound (A) in FIG. 1E (Lop view) and FIG. 1F (side view); or treated with 0.3 g/100 kg seeds of compound (A) in FIG. 1G (top view) and FIG. 1H (side view). Seedlings were evaluated after 19 days. Soybean seeds of the variety Merlin were treated with 1.2, 0.6 and 0.3 g of compound (A) per 100 kg seeds. Compound (A) was provided as an aqueous solution with a concentration of 1000 ppm compound (A). The treated seeds were seeded into soil/quartz in five replicates at the same day. Germination was observed four days later. Comparative photographs were taken after 19 days.

[4] = tested on: Roses of the variety Kordana Mixkar; experiment: Rose foliar application: number of flowers by visual inspection (Example D); details: for No Flowers, Average (A to E): average of five replicates, untreated controls 9.4 and 10.2; for No Flowers, A: replicate A; for No Flowers, A / No Flowers, B / No Flowers, C / No Flowers, D / No Flowers, E: assessed 2016-06-14; for No Flowers, B: replicate B; for No Flowers, C: replicate C; for No Flowers, D: replicate D; for No Flowers, E: replicate E
Description: FIGS. 2A-2H. Rose plants of the variety Kordana Mixkar were treated in five replicates. Untreated control is shown in FIG. 2A (side view) and FIG. 2B (top view). Treatment at 1 ppm is shown in FIG. 2C (side view) and FIG. 2D (top view). Treatment at 80 ppm is shown in FIG. 2E (side view) and FIG. 2F (top view). Treatment at 420 ppm is showing in FIG. 2G (side view) and FIG. 2H (top view). Rose plants were evaluated for quantity and fullness of flowers.
Roses of the variety Kordana Mixkar were cultivated in 2 litre pots in soil in the greenhouse at 23 degree Celsius and 80% humidity. Compound (A) and Clopyralid as a comparison were applied as a foliar application on 2016-05-25 at application rates according to the following table 3 Ammonium sulfate and methylated soybean oil were used as penetration enhancing agents.
Rose plants were treated in five replicates. The number of flowers was assessed by visual inspection on 2016-06-14.

[5] = seed treatment 0.3 g/100 kg seeds
[6] = seed treatment 0.6 g/100 kg seeds
[7] = seed treatment 1.2 g/100 kg seeds
[8] = 0.3 g/100 kg seeds, photographs after 19 days (FIGS. 1G, 1H)
[9] = 0.6 g/100 kg seeds, photographs after 19 days (FIGS. 1E, 1F)

## O=C(O)c1ncc(C(F)(F)F)cc1Cl [Compound (A), 3-chloro-5-(trifluoromethyl)pyridine-2-carboxylic acid]
[1]; [5]
  Fresh weight plant: 2.62 g
  Plant height [% of untreated control]: 111 % of untreated control
  dry weight roots, % of untreated control: 105%
  dry weight stem, % of untreated control: 114%
  fresh weight roots, % of untreated control: 106%
  fresh weight stem, % of untreated control: 103%
[1]; [6]
  Fresh weight plant: 2.53 g
  Plant height [% of untreated control]: 103 % of untreated control
  dry weight roots, % of untreated control: 108%
  dry weight stem, % of untreated control: 107%
  fresh weight roots, % of untreated control: 107%
  fresh weight stem, % of untreated control: 100%
[1]; [7]
  Fresh weight plant: 2.24 g
  Plant height [% of untreated control]: 87 % of untreated control
  dry weight roots, % of untreated control: 68%
  dry weight stem, % of untreated control: 77%
  fresh weight roots, % of untreated control: 69%
  fresh weight stem, % of untreated control: 88%
[2]; [5]
  Root volume [cm^3]: 0.83 cm^3
[2]; [6]
  Root volume [cm^3]: 0.96 cm^3
[2]; [7]
  Root volume [cm^3]: 0.50 cm^3
[3]; [8]
  biomass of leaves in comparison to the untreated control: increased biomass of leaves
  growth of the seedlings in comparison to the untreated control: higher growth of the seedlings
[3]; [9]
  biomass of leaves in comparison to the untreated control: increased biomass of leaves
  growth of the seedlings in comparison to the untreated control: higher growth of the seedlings
[4]; 1 ppm foliar
  No Flowers, Average (A to E): 9.6
  No Flowers, A: 8
  No Flowers, B: 7
  No Flowers, C: 11
  No Flowers, D: 10
  No Flowers, E: 12
[4]; 10 ppm foliar
  No Flowers, Average (A to E): 10.2
  No Flowers, A: 11
  No Flowers, B: 10
  No Flowers, C: 10
  No Flowers, D: 10
  No Flowers, E: 10
[4]; 20 ppm foliar
  No Flowers, Average (A to E): 10.6
  No Flowers, A: 11
  No Flowers, B: 10
  No Flowers, C: 12
  No Flowers, D: 10
  No Flowers, E: 10
[4]; 40 ppm foliar
  No Flowers, Average (A to E): 11.2
  No Flowers, A: 11
  No Flowers, B: 8
  No Flowers, C: 13
  No Flowers, D: 12
  No Flowers, E: 12
[4]; 80 ppm foliar
  No Flowers, Average (A to E): 11.4
  No Flowers, A: 12
  No Flowers, B: 13
  No Flowers, C: 11
  No Flowers, D: 11
  No Flowers, E: 10
[4]; 170 ppm foliar
  No Flowers, Average (A to E): 8.8
  No Flowers, A: 8
  No Flowers, B: 10
  No Flowers, C: 10
  No Flowers, D: 5
  No Flowers, E: 11
[4]; 250 ppm foliar
  No Flowers, Average (A to E): 5.4
  No Flowers, A: 3
  No Flowers, B: 9
  No Flowers, C: 3
  No Flowers, D: 4
  No Flowers, E: 8
[4]; 420 ppm foliar
  No Flowers, Average (A to E): 5
  No Flowers, A: 8
  No Flowers, B: 7
  No Flowers, C: 3
  No Flowers, D: 4
  No Flowers, E: 3
[4]; 850 ppm foliar
  No Flowers, Average (A to E): 5.2
  No Flowers, A: 2
  No Flowers, B: 3
  No Flowers, C: 10
  No Flowers, D: 5
  No Flowers, E: 6
[4]; foliar application, up to a concentration of 80 ppm, FIGS. 2C-2H
  quantity and fullness of flowers versus untreated controls: more and fuller flowers than the untreated controls
